Measured values published in patent publication US20230021483A1, “[…] […] METHOD AND CLASSIFICATION OF PHARMACEUTICAL COMPONENTS BY USING TRANSCRIPTOMES” (National Institutes of Biomedical Innovation, Health and …, priority 2016, published 2023).

Columns and labels:
Type in all cases: in vivo, C57BL/6 mice
[1] = tested on: preferentially upregulated genes in LV, SP, LN; experiment: Z-score-based differential gene expression analysis (adjuvant group- or adjuvant-associated genes, 40 module mapping, TargetMine annotation); settings: ID, LV
Procedure, shortened: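 Gene groups for each organ were built from combined z-score cutoffs across adjuvants, ranging from z>1 to z>3. Scores came from fold changes standardized per gene over the whole organ data set, with the three replicate z-scores added per adjuvant; sums above 3 marked preferential expression.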

LV, SP and LNs = experiment: Whole organ transcriptome across organs (adjuvant gene space): gene responses and adjuvant grouping
[2] = tested on: inguinal lymph nodes (LN); experiment: Whole organ transcriptome (GeneChip microarray) of draining inguinal lymph nodes 6 h after adjuvant administration: sDEGs, gene modules, hierarchical clustering; settings: lymph node; for adjuvant group (cluster) in LN: key: G1 (interferon signaling); G2 (metabolism of lipids and lipoproteins); G3 (response to stress); G4 (response to wounding); G5 (phosphate-containing compound metabolic process); G6 (phagosome)

Monophosphoryl lipid A [MPLA]
Adar 1425405_a_at (Group G1, Modules 20) ([1]; sample x1): −0.2
Adar 1434268_at (Group G1, Modules 20) ([1]; sample x1): −0
Ddx58 1436562_at (Group G1, Modules 20) ([1]; sample x1): −0.3
Ddx58 1456890_at (Group G1, Modules 20) ([1]; sample x1): −0.2
Eif2ak2 1422005_at (Group G1, Modules 20) ([1]; sample x1): −0.3
G3bp2 1421323_a_at (Group G1, Modules 20) ([1]; sample x1): −0.3
Gm9706///Isg15 1431591_s_at (Group G1, Modules 20) ([1]; sample x1): −0.5
H2-T10///H2-T22///H2-T9 1449875_s_at (Group G1, Modules 20) ([1]; sample x1): −0.3
Ifih1 1426276_at (Group G1, Modules 20) ([1]; sample x1): −0.4
Ifit1 1450783_at (Group G1, Modules 20) ([1]; sample x1): −0.5
Ifit3 1449025_at (Group G1, Modules 20) ([1]; sample x1): −0.5
Irf7 1417244_a_at (Group G1, Modules 20) ([1]; sample x1): −0.4
Irgm1 1418825_at (Group G1, Modules 20) ([1]; sample x1): −0.4
Mndal 1426906_at (Group G1, Modules 20) ([1]; sample x1): −0.2
Pml 1448757_at (Group G1, Modules 20) ([1]; sample x1): −0.4
Pml 1456103_at (Group G1, Modules 20) ([1]; sample x1): −0.3
Rnf213 1455500_at (Group G1, Modules 20) ([1]; sample x1): −0.4
Rsad2 1436058_at (Group G1, Modules 20) ([1]; sample x1): −0.5
Shisa5 1423986_a_at (Group G1, Modules 20) ([1]; sample x1): −0.2
Shisa5 1437503_a_at (Group G1, Modules 20) ([1]; sample x1): −0.3
Stat1 1450033_a_at (Group G1, Modules 20) ([1]; sample x1): −0.5
Stat1 1450034_at (Group G1, Modules 20) ([1]; sample x1): −0.4
Tdrd7 1426716_at (Group G1, Modules 20) ([1]; sample x1): −0.3
Tor1aip2 1418115_s_at (Group G1, Modules 20) ([1]; sample x1): −0.4
Tor1aip2 1418116_at (Group G1, Modules 20) ([1]; sample x1): −0
Tor1aip2 1435526_at (Group G1, Modules 20) ([1]; sample x1): −0.2
Trim12a 1437432_a_at (Group G1, Modules 20) ([1]; sample x1): −0.4
Uba7 1426970_a_at (Group G1, Modules 20) ([1]; sample x1): −0.1
Adar 1425405_a_at (Group G1, Modules 20) ([1]; sample x2): −0.4
Adar 1434268_at (Group G1, Modules 20) ([1]; sample x2): −0.3
Ddx58 1436562_at (Group G1, Modules 20) ([1]; sample x2): −0.4
Ddx58 1456890_at (Group G1, Modules 20) ([1]; sample x2): −0.1
Eif2ak2 1422005_at (Group G1, Modules 20) ([1]; sample x2): −0.4
G3bp2 1421323_a_at (Group G1, Modules 20) ([1]; sample x2): −0.6
Gm9706///Isg15 1431591_s_at (Group G1, Modules 20) ([1]; sample x2): −0.5
H2-T10///H2-T22///H2-T9 1449875_s_at (Group G1, Modules 20) ([1]; sample x2): −0.3
Ifih1 1426276_at (Group G1, Modules 20) ([1]; sample x2): −0.4
Ifit1 1450783_at (Group G1, Modules 20) ([1]; sample x2): −0.5
Ifit3 1449025_at (Group G1, Modules 20) ([1]; sample x2): −0.5
Irf7 1417244_a_at (Group G1, Modules 20) ([1]; sample x2): −0.5
Irgm1 1418825_at (Group G1, Modules 20) ([1]; sample x2): −0.5
Mndal 1426906_at (Group G1, Modules 20) ([1]; sample x2): −0.4
Pml 1448757_at (Group G1, Modules 20) ([1]; sample x2): −0.3
Pml 1456103_at (Group G1, Modules 20) ([1]; sample x2): −0.4
Rnf213 1455500_at (Group G1, Modules 20) ([1]; sample x2): −0.5
Rsad2 1436058_at (Group G1, Modules 20) ([1]; sample x2): −0.5
Shisa5 1423986_a_at (Group G1, Modules 20) ([1]; sample x2): −0.4
Shisa5 1437503_a_at (Group G1, Modules 20) ([1]; sample x2): −0.3
Stat1 1450033_a_at (Group G1, Modules 20) ([1]; sample x2): −0.5
Stat1 1450034_at (Group G1, Modules 20) ([1]; sample x2): −0.5
Tdrd7 1426716_at (Group G1, Modules 20) ([1]; sample x2): −0.3
Tor1aip2 1418115_s_at (Group G1, Modules 20) ([1]; sample x2): −0.4
Tor1aip2 1418116_at (Group G1, Modules 20) ([1]; sample x2): −0.3
Tor1aip2 1435526_at (Group G1, Modules 20) ([1]; sample x2): −0.1
Trim12a 1437432_a_at (Group G1, Modules 20) ([1]; sample x2): −0.6
Uba7 1426970_a_at (Group G1, Modules 20) ([1]; sample x2): −0.2
Adar 1425405_a_at (Group G1, Modules 20) ([1]; sample x3): −0.6
Adar 1434268_at (Group G1, Modules 20) ([1]; sample x3): −0.3
Ddx58 1436562_at (Group G1, Modules 20) ([1]; sample x3): −0.5
Ddx58 1456890_at (Group G1, Modules 20) ([1]; sample x3): −0.4
Eif2ak2 1422005_at (Group G1, Modules 20) ([1]; sample x3): −0.4
G3bp2 1421323_a_at (Group G1, Modules 20) ([1]; sample x3): −0.5
Gm9706///Isg15 1431591_s_at (Group G1, Modules 20) ([1]; sample x3): −0.5
H2-T10///H2-T22///H2-T9 1449875_s_at (Group G1, Modules 20) ([1]; sample x3): −0.4
Ifih1 1426276_at (Group G1, Modules 20) ([1]; sample x3): −0.4
Ifit1 1450783_at (Group G1, Modules 20) ([1]; sample x3): −0.5
Ifit3 1449025_at (Group G1, Modules 20) ([1]; sample x3): −0.5
Irf7 1417244_a_at (Group G1, Modules 20) ([1]; sample x3): −0.5
Irgm1 1418825_at (Group G1, Modules 20) ([1]; sample x3): −0.6
Mndal 1426906_at (Group G1, Modules 20) ([1]; sample x3): −0.5
Pml 1448757_at (Group G1, Modules 20) ([1]; sample x3): −0.4
Pml 1456103_at (Group G1, Modules 20) ([1]; sample x3): −0.3
Rnf213 1455500_at (Group G1, Modules 20) ([1]; sample x3): −0.5
Rsad2 1436058_at (Group G1, Modules 20) ([1]; sample x3): −0.5
Shisa5 1423986_a_at (Group G1, Modules 20) ([1]; sample x3): −0.3
Shisa5 1437503_a_at (Group G1, Modules 20) ([1]; sample x3): −0.4
Stat1 1450033_a_at (Group G1, Modules 20) ([1]; sample x3): −0.6
Stat1 1450034_at (Group G1, Modules 20) ([1]; sample x3): −0.5
Tdrd7 1426716_at (Group G1, Modules 20) ([1]; sample x3): −0.4
Tor1aip2 1418115_s_at (Group G1, Modules 20) ([1]; sample x3): −0.6
Tor1aip2 1418116_at (Group G1, Modules 20) ([1]; sample x3): −0.2
Tor1aip2 1435526_at (Group G1, Modules 20) ([1]; sample x3): −0.5
Trim12a 1437432_a_at (Group G1, Modules 20) ([1]; sample x3): −0.5
Uba7 1426970_a_at (Group G1, Modules 20) ([1]; sample x3): −0.6
consistency of gene responses among individual mice and organs (LV, SP and LNs; 6 h, FIG. 5): varying gene responses among the individual mice and organs
distribution/strength of gene responses between local LNs and systemic organs (LV, SP) (LV, SP and LNs; 6 h after i.d. (local) administration): acted on local LNs but not in the systemic remote organs
adjuvant group (cluster) in LN ([2]; hierarchical clustering): G1
Number of gene probes with statistically significant changes (sDEGs), LN, Down ([2]; i.d. administration, fold change <0.667, p<0.01, customized PA call=1, 6 h after adjuvant): 18
Number of gene probes with statistically significant changes (sDEGs), LN, Up ([2]; i.d. administration, fold change >1.5, p<0.01, customized PA call=1, 6 h after adjuvant): 8
